The test relates to BDF1 mice, B16 melanoma ip, median survival T/C. In words: NCI In Vivo Anticancer Drug Screen. Data for tumor model B16 Melanoma (intraperitoneal) in B6D2F1 (BDF1) mice. Conditions: endpoint: median survival time, higher = longer survival. The method in brief: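 The ratio T/C compares compound-treated mice with vehicle-treated controls, using survival or tumor size as the endpoint in a transplantable tumor model.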

[1] abbreviates: dose: 100.0 mg/kg/injection, schedule: Q01DX009 (ip), vehicle: Klucel (hydroxypropylcellulose) (HPC).
[2] abbreviates: dose: 200.0 mg/kg/injection, schedule: Q01DX009 (ip), vehicle: Klucel (hydroxypropylcellulose) (HPC).
Setting [3] is: dose: 25.0 mg/kg/injection, schedule: Q01DX009 (ip), vehicle: saline.
Where [4] appears, read: dose: 50.0 mg/kg/injection, schedule: Q01DX009 (ip), vehicle: saline.
Setting [5] is: dose: 100.0 mg/kg/injection, schedule: Q01DX009 (ip), vehicle: saline.
[6] abbreviates: dose: 200.0 mg/kg/injection, schedule: Q01DX009 (ip), vehicle: saline.
Where [7] appears, read: dose: 6.25 mg/kg/injection, schedule: Q01DX009 (ip), vehicle: saline.
The mark [8] stands for this setting: dose: 12.5 mg/kg/injection, schedule: Q01DX009 (ip), vehicle: saline.
Setting [9] is: dose: 100.0 mg/kg/injection, schedule: Q04DX003 (ip), vehicle: saline with Tween-80.
Where [10] appears, read: dose: 200.0 mg/kg/injection, schedule: Q01DX009 (ip), vehicle: saline with Tween-80.

Values joined by “and” are separate entries in the source; they are usually repeats but may differ in a detail not shown here. Equal values may be shown once. Inconclusive results and toxic doses are left out. Numbered stars: 1 amine (or outer) side, 2 acyl side, 3 side chain; on linkers, the order of the positions; unused ones are H or OH. Bridge positions count the residues as written; N and C are the ends. Square brackets hold non-standard residues; d marks the D form. Peptide text beside a SMILES is read from it. I, II: the chains in the order shown. Actinocin(1to9) = Cc1c2oc3c(C)ccc(C(=O)[*:2])c3nc-2c(C(=O)[*:1])c(N)c1=O; NMeV = CN[CH](C(=O)O)C(C)C; Sar = CNCC(=O)O

Take `O=C(O)c1ccc(C(=O)O)c(C(=O)O)c1.[NH-]C1CCCCC1[NH-].[Pt+2]`: the T/C is, setting by setting: (dose: 0.19 mg/kg/injection, schedule: Q01DX009 (ip), vehicle: sodium bicarbonate) 151 % of control; (dose: 0.39 mg/kg/injection, schedule: Q01DX009 (ip), vehicle: sodium bicarbonate) 118 % of control; (dose: 0.4 mg/kg/injection, schedule: Q01DX009 (ip), vehicle: sodium bicarbonate) 116 % of control; (dose: 0.78 mg/kg/injection, schedule: Q01DX009 (ip), vehicle: sodium bicarbonate) 185 % of control; (dose: 0.8 mg/kg/injection, schedule: Q01DX009 (ip), vehicle: other) 165 % of control; (dose: 1.56 mg/kg/injection, schedule: Q01DX009 (ip), vehicle: other) 181 % of control. Also, the T/C runs as follows: (dose: 1.56 mg/kg/injection, schedule: Q01DX009 (ip), vehicle: sodium bicarbonate) 158 % of control and 159 % of control; (dose: 1.6 mg/kg/injection, schedule: Q01DX009 (ip), vehicle: other) 157 % of control; (dose: 1.6 mg/kg/injection, schedule: Q01DX009 (ip), vehicle: sodium bicarbonate) 161 % of control; (dose: 3.12 mg/kg/injection, schedule: Q01DX009 (ip), vehicle: other) 169 % of control; (dose: 3.2 mg/kg/injection, schedule: Q01DX009 (ip), vehicle: sodium bicarbonate) 168 % of control; (dose: 4.8 mg/kg/injection, schedule: Q01DX009 (ip), vehicle: sodium bicarbonate) 169 % of control. Where the note is “dose: 6.25 mg/kg/injection, schedule: Q01DX009 (ip), vehicle: other”, the T/C was 171 % of control.
For `CCC(C)C1NC(=O)C(NC(=O)c2c3nc4c(C(=O)NC5C(=O)NC(C(C)CC)C(=O)N6CCCC6C(=O)N(C)CC(=O)N(C)C(C(C)C)C(=O)OC5C)ccc(C)c4oc-3c(C)c(=O)c2N)C(C)OC(=O)C(C(C)C)N(C)C(=O)CN(C)C(=O)C2CCCN2C1=O` (centres undefined) (I: TIP[Sar][NMeV] / II: TIP[Sar][NMeV]; ester I:1-I:C, II:1-II:C; linker I:N-II:N via Actinocin(1to9); configuration not given here), the T/C reads like this: (dose: 0.2 mg/kg/injection, schedule: Q01DX001 (ip), vehicle: water) 120 % of control; (dose: 0.4 mg/kg/injection, schedule: Q01DX001 (ip), vehicle: water) 114 % of control; (dose: 0.8 mg/kg/injection, schedule: Q01DX001 (ip), vehicle: water) 123 % of control; (dose: 12.5 micrograms/kg/injection, schedule: Q01DX009 (ip), vehicle: water) 108 % of control; (dose: 25.0 micrograms/kg/injection, schedule: Q01DX009 (ip), vehicle: water) 119 % of control; (dose: 75.0 micrograms/kg/injection, schedule: Q04DX003 (ip), vehicle: water) 115 % of control. Besides, the T/C (dose: 150.0 micrograms/kg/injection, schedule: Q04DX003 (ip), vehicle: water) was 114 % of control.
As for `C1CC[N-]CC1.C1CC[N-]CC1.[Cl][Pt+2]([Cl])([Cl])[Cl]`, the T/C runs as follows: (dose: 50.0 mg/kg/injection, schedule: Q01DX009 (ip), vehicle: Klucel (hydroxypropylcellulose) (HPC)) 111 % of control; under setting [1], 120 % of control; under setting [2], 123 % of control.
Regarding `CCN(CC)C(=O)C1CN2CCc3cc(OC)c(OC)cc3C2CC1O` (centres undefined), the T/C is 90 % of control under setting [3]; 100 % of control under setting [4]; 100 % of control under setting [5]; 102 % of control under setting [6]; 100 % of control (dose: 400.0 mg/kg/injection, schedule: Q01DX009 (ip), vehicle: saline).
With `Nc1ncnc(N)c1N=O`, the T/C reads like this: under setting [4], 118 % of control; under setting [5], 115 % of control.
Consider `O=C(OCC(COC(=O)c1ccccc1)(COC(=O)c1ccccc1)COC(=O)c1ccccc1)c1ccccc1`, for which the T/C runs as follows: under setting [1], 111 % of control; under setting [2], 102 % of control; (dose: 400.0 mg/kg/injection, schedule: Q01DX009 (ip), vehicle: Klucel (hydroxypropylcellulose) (HPC)) 92 % of control.
With `CC(C)C(C(=O)c1ccccc1)C(c1ccccc1)c1ccccc1` (centres undefined), the T/C (dose: 100.0 mg/kg/injection, schedule: Q04DX003 (ip), vehicle: other) was 92 % of control and the T/C (dose: 200.0 mg/kg/injection, schedule: Q04DX003 (ip), vehicle: other) was 94 % of control.
As for `O=S(=O)(O)c1ccc(-c2c3nc(c(-c4ccc(S(=O)(=O)O)cc4)c4ccc([nH]4)c(-c4ccc(S(=O)(=O)O)cc4)c4nc(c(-c5ccc(S(=O)(=O)O)cc5)c5ccc2[nH]5)C=C4)C=C3)cc1`, the T/C is 104 % of control under setting [7], 105 % of control under setting [8], 117 % of control under setting [3] and 110 % of control under setting [4].
Turning to `O=C(O)C(Br)C(Br)c1ccccc1` (centres undefined), the T/C is 86 % of control under setting [9]; 93 % of control (dose: 200.0 mg/kg/injection, schedule: Q04DX003 (ip), vehicle: saline with Tween-80); 86 % of control (dose: 400.0 mg/kg/injection, schedule: Q04DX003 (ip), vehicle: saline with Tween-80).
`COC(=O)C1C2CC3c4[nH]c5cc(OC)ccc5c4CCN3CC2CC(OC)C1OC` (centres undefined): the T/C reads like this: (dose: 0.25 mg/kg/injection, schedule: Q01DX009 (ip), vehicle: saline) 102 % of control; (dose: 0.5 mg/kg/injection, schedule: Q01DX009 (ip), vehicle: saline) 94 % of control; (dose: 1.0 mg/kg/injection, schedule: Q01DX009 (ip), vehicle: saline) 105 % of control; (dose: 1.56 mg/kg/injection, schedule: Q01DX009 (ip), vehicle: saline) 100 % of control; (dose: 3.12 mg/kg/injection, schedule: Q01DX009 (ip), vehicle: saline) 98 % of control; (dose: 4.0 mg/kg/injection, schedule: Q01DX009 (ip), vehicle: saline) 94 % of control and 100 % of control. Also, the T/C is, setting by setting: under setting [7], 103 % of control; (dose: 8.0 mg/kg/injection, schedule: Q01DX009 (ip), vehicle: saline) 104 % of control; under setting [8], 106 % of control; (dose: 16.0 mg/kg/injection, schedule: Q01DX009 (ip), vehicle: saline) 99 % of control; under setting [3], 101 % of control; (dose: 32.0 mg/kg/injection, schedule: Q01DX009 (ip), vehicle: saline) 94 % of control.
As for `CC1(c2ccccc2)C(C#N)C(=O)NC(=O)C1C#N` (centres undefined), the T/C by setting is: (dose: 50.0 mg/kg/injection, schedule: Q01DX009 (ip), vehicle: saline with Tween-80) 89 % of control; (dose: 100.0 mg/kg/injection, schedule: Q01DX009 (ip), vehicle: saline with Tween-80) 89 % of control; under setting [10], 89 % of control.
As for `C[C@H]1C/C=C/[C@H]2[C@@H]3O[C@]3(C)[C@@H](C)[C@H]3[C@H](Cc4ccccc4)NC(=O)[C@]32OC(=O)O/C=C/[C@@](C)(O)C1=O`, the T/C runs as follows: (dose: 1.25 mg/kg/injection, schedule: Q01DX009 (ip), vehicle: Klucel (hydroxypropylcellulose) (HPC)) 86 % of control; (dose: 2.5 mg/kg/injection, schedule: Q01DX009 (ip), vehicle: Klucel (hydroxypropylcellulose) (HPC)) 92 % of control; (dose: 10.0 mg/kg/injection, schedule: Q01DX009 (ip), vehicle: Klucel (hydroxypropylcellulose) (HPC)) 89 % of control.
On to `NC(CC(=O)O)C(=O)OCc1ccccc1` (centres undefined), for which the T/C is 95 % of control under setting [3], 108 % of control under setting [4], 114 % of control under setting [5] and 105 % of control under setting [6].
Turning to `CC(C)CC(NC(=O)OCc1ccccc1)C(=O)O` (centres undefined), the T/C was 102 % of control under setting [9]; 106 % of control under setting [10]; 121 % of control (dose: 400.0 mg/kg/injection, schedule: Q01DX009 (ip), vehicle: saline with Tween-80).
Take `COC(=O)C(=O)[C@@H](O)[C@H](O)[C@@H](O)CO`: the T/C is 94 % of control (dose: 100.0 mg/kg/injection, schedule: Q04DX003 (ip), vehicle: Klucel (hydroxypropylcellulose) (HPC)); 94 % of control (dose: 200.0 mg/kg/injection, schedule: Q04DX003 (ip), vehicle: Klucel (hydroxypropylcellulose) (HPC)); 100 % of control (dose: 400.0 mg/kg/injection, schedule: Q04DX003 (ip), vehicle: Klucel (hydroxypropylcellulose) (HPC)).
As for `CC(C)(C[NH-])C[NH-].[Cl][Pt+2][Cl]`, the T/C (dose: 0.5 mg/kg/injection, schedule: Q04DX003 (ip), vehicle: water) is 164 % of control; the T/C (dose: 1.0 mg/kg/injection, schedule: Q04DX003 (ip), vehicle: water) was 165 % of control and 183 % of control; the T/C (dose: 2.0 mg/kg/injection, schedule: Q04DX003 (ip), vehicle: water) was 161 % of control and 201 % of control; the T/C (dose: 4.0 mg/kg/injection, schedule: Q04DX003 (ip), vehicle: water) is 213 % of control.

The values above are taken from PubChem BioAssay AID192 (DTP/NCI, 2004).
